Results from PubChem BioAssay (NCI).
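1) Cells in 96-well plates. 2) Compound, 48 h, 5 concentrations. 3) Linear interpolation between surrounding doses. 4) Unreached endpoint = highest concentration. GI50: concentration for 50% inhibition of growth. TGI is the concentration that stops growth completely.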

How the values were obtained:
Assay in all cases: NCI anticancer screen, dose series, 48 h
786-0 renal = tested on: 786-0 renal
HOP-92 NSCLC = tested on: HOP-92 NSCLC
K-562 leukemia = tested on: K-562 leukemia
M14 melanoma = tested on: M14 melanoma
RPMI-8226 leukemia = tested on: RPMI-8226 leukemia
SF-268 CNS = tested on: SF-268 CNS
SK-MEL-5 melanoma = tested on: SK-MEL-5 melanoma
SN12C renal = tested on: SN12C renal
T-47D breast = tested on: T-47D breast
SK-MEL-28 melanoma = tested on: SK-MEL-28 melanoma

Structure (SMILES)	TGI (786-0 renal)	TGI (HOP-92 NSCLC)	TGI (K-562 leukemia)	TGI (M14 melanoma)	TGI (RPMI-8226 leukemia)	TGI (SF-268 CNS)	TGI (SK-MEL-5 melanoma)	TGI (SN12C renal)	TGI (T-47D breast)	TGI (SK-MEL-28 melanoma)	GI50 (HOP-92 NSCLC)	GI50 (RPMI-8226 leukemia)	GI50 (T-47D breast)	GI50 (K-562 leukemia)	GI50 (M14 melanoma)	GI50 (SF-268 CNS)	GI50 (SK-MEL-28 melanoma)	GI50 (SK-MEL-5 melanoma)	GI50 (SN12C renal)
CC(=O)C1=C(N=[N+]=[N-])c2cccc3cccc(c23)C1=O	33.7 µM	42.8 µM	89.8 µM	26.5 µM	42.8 µM	75.2 µM	38.1 µM	39.7 µM	41.2 µM										
NNC(=O)CNC(=O)CSc1nnc(COc2ccc(Cl)cc2)n1-c1ccccc1	> 100 µM	> 100 µM	> 100 µM	> 100 µM		> 100 µM		> 100 µM	> 100 µM	> 100 µM									
O=P(O)(O)C(CSc1ccccc1)P(=O)(O)O		> 100 µM	> 100 µM		> 100 µM	> 100 µM	> 100 µM	> 100 µM		> 100 µM									
COP(C)(=O)/C(Cc1ccccc1)=N\O (stereo unspecified)		> 100 µM	> 100 µM	> 100 µM	> 100 µM		> 100 µM	> 100 µM	> 100 µM	> 100 µM									
COC(=O)NCCc1[nH]nc2c1C(=O)C=C(Nc1ccccc1)C2=O	> 100 µM	95.5 µM	> 100 µM	> 100 µM	> 100 µM	> 100 µM	32.2 µM	> 100 µM	> 100 µM										
O=C1NC2(CCCCC2)N=C2C(Cl)CCCC12Cl (stereo unspecified)	> 100 µM		> 100 µM	> 100 µM	> 100 µM	> 100 µM	> 100 µM	> 100 µM	> 100 µM	> 100 µM									
CC[C@@]1(O)C(=O)OCc2c1cc1n(c2=O)Cc2c-1nc1ccccc1c2CC[Si](C)(C)C	< 0.0266 µM	> 100 µM	> 100 µM	0.0155 µM	0.834 µM		< 0.0425 µM		> 27.7 µM	> 100 µM									
CC(=O)O[C@H]1CC[C@]2(C)[C@H]3CC[C@@H]4[C@H]5[C@H](C(C)C)CC[C@]5(C(=O)OCC(CO)(CO)N=C(N)N)CC[C@@]4(C)[C@]3(C)CC[C@H]2C1(C)C		2.93 µM			4.81 µM				2.91 µM		1.48 µM	2.07 µM	1.51 µM						
CC(=O)[O-].CC(=O)[O-].O=C(N/N=C/c1cc(Cl)cc(Cl)c1[OH2+])c1ccncc1.[Co+2]	> 100 µM	95.9 µM	> 100 µM	> 100 µM	> 100 µM	> 100 µM	> 100 µM	> 100 µM		> 100 µM	23.6 µM								
O=C(O)CSc1cc(-c2ccccc2)nc2ccccc12	> 100 µM	> 100 µM	> 100 µM	> 100 µM		> 100 µM	> 100 µM	> 100 µM	> 100 µM	> 100 µM									
O=C1OCC(C#Cc2ccccc2)=C1Cl		6.84 µM	14.6 µM	16.4 µM	4.61 µM	72.7 µM	23.5 µM	12.3 µM	30.3 µM	5.16 µM	2.14 µM	1.56 µM	12.6 µM	1.86 µM	3.88 µM	6.82 µM	1.7 µM	10 µM	2.89 µM
